Eleven compounds from patent publication US6887896B1, “7-[(7-Alkoxy)-chrom-3-en-6-yl]-heptatrienoic acid and 7-[(3-alkoxy)-5,6-dihydronaphthalen-2-yl]-heptatrienoic acid derivatives having serum glucose reducing activity” (Allergan, Inc., priority 2003, dated 2005) can be followed below.

The target of one assay is T1, RARγ (Homo sapiens, UniProt P13631).
T1 sequence (P13631 1-454): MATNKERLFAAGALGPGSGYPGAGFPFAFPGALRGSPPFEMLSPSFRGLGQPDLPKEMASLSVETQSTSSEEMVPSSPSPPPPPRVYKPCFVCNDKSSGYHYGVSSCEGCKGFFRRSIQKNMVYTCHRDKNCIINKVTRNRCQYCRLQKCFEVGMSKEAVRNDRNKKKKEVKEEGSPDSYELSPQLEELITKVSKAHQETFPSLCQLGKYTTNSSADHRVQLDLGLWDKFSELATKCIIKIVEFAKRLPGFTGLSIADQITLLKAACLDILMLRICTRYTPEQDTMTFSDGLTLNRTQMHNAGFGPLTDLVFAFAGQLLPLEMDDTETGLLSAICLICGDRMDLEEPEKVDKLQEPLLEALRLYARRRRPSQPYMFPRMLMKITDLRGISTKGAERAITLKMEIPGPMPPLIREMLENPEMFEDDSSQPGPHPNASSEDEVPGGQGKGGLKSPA
Description: ligand binding assay, RARγ. Conditions: for Ki: read-out: RAR Bind. Ki γ. An excerpt: (§1) Specifically, one such assay is a chimeric receptor transactivation assay which tests for agonist-like activity in the R RAPE and RAR7 receptor subtypes, and which is based on work published by Feigner, P. L. and Holm, M (1989) Focus, 112 is described in detail in U.S. Pat. No. 5,455,265. The specification of U.S. Pat. No. 5,455,265 is hereby expressly incorporated by reference. A holoreceptor transactivation assay and a ligand binding assay which measure the antagonist/agonist like activity of the compounds of the invention, or their ability to bind to the several retinoid receptor subtypes, respectively, are described in published PCT Application No. WO WO93/11755 (particularly on pages 30-33 and 37-41) published on Jun. 24, 1993, the specification of which is also incorporated herein by reference. A detailed experimental procedure for holoreceptor transactivations has been described by Heyman et al. Cell 68, 397-406, (1992); Allegretto et al. J. Biol. Chem. 268, 26625-26633, and Mangelsdorf et al. The Retinoids: Biology, Chemistry and Medicine, pp 319-349, Raven Press Ltd., New York, which are expressly incorporated herein by reference. The results obtained in this assay are expressed in EC50 numbers, as they are also in the chimeric receptor transactivation assay. The results of the ligand binding assay are expressed in Ki numbers. (See Cheng et al. Biochemical Pharmacology Vol. 22 pp 3099-3108, expressly incorporated herein by reference.)
(§2) Generally speaking, in the tables disclosing the results of transactivation and binding assays the numbers in parentheses indicate efficacy as a percentage compared to the standard compound, (2E,4E,1′S,2′S)-3-methyl-5-[2′-methyl-2′-(5,5,8,8-tetramethyl-5,6,7,8-tetrahydro-naphthalen-2-yl)cyclopropyl]-penta-2,4-dienoic acid and the other numbers indicate the measured EC50 and K; in nanomolar concentration.

Assay [1] concerns the target T2, RXRβ (UniProt P28704).
T2 sequence (P28704 1-520): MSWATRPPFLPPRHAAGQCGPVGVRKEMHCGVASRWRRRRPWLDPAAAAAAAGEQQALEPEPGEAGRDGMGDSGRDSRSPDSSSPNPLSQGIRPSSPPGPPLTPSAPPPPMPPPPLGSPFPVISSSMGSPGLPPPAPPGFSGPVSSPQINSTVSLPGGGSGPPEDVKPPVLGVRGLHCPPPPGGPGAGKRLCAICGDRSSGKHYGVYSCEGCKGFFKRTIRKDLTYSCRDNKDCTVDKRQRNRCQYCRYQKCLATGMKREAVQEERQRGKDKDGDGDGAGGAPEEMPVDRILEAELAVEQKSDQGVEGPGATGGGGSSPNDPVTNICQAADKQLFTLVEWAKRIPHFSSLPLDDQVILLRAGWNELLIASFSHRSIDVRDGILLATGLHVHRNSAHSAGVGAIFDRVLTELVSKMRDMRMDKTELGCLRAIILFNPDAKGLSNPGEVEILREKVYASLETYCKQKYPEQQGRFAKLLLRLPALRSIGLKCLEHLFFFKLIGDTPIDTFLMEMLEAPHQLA
Description: ligand binding assay, RXRβ. To be noted: for Ki: read-out: RXR Bind Ki β.
Text: as §1, §2

For assay [2], the target named is T3, RARβ (Homo sapiens, UniProt P10826).
T3 sequence (P10826 1-455): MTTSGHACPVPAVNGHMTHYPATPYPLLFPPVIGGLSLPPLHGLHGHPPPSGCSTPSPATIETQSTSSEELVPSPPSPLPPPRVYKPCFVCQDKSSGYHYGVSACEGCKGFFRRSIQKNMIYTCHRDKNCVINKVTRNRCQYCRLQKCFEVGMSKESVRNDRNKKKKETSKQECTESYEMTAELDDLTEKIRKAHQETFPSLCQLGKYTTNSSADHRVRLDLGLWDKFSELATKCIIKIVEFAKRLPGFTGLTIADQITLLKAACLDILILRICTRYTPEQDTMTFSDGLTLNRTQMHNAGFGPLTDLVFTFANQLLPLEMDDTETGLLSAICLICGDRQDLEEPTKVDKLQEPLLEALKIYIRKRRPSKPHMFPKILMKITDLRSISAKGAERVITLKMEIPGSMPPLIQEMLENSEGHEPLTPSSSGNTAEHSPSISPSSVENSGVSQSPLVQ
As to the kind of experiment: ligand binding assay, RARβ. To be noted: for Ki: read-out: RAR Bind. Ki β.
Text: as §1, §2

Assay [3] concerns the target T4, RARβ (Homo sapiens, UniProt P10826).
T4 sequence (P10826 183-417 limits assumed): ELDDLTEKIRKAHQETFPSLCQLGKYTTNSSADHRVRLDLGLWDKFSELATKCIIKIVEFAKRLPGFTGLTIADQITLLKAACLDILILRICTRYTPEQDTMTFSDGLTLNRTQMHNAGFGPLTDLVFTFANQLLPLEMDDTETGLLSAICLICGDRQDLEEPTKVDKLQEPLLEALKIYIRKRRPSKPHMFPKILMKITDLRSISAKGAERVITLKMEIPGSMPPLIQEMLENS
Description: chimeric receptor transactivation assay, RARβ. To be noted: for EC50: chimeric receptor transactivation, read-out: RAR Trans. EC50 β; for Emax: percentage compared to the standard compound, read-out: RAR Trans. efficacy (number in parentheses) β. The assay is classed as cell-based.
Text: as §1
(§3) Efficacy in a transactivation assay is expressed as a percentage of the maximum potency attained by the compound compared to a standard which, in this case, is the compound named (2E,4E,1′S,2′S)-3-methyl-5-[2′-methyl-2′-(5,5,8,8-tetramethyl-5,6,7,8-tetrahydro-naphthalen-2-yl)-cyclopropyl]-penta-2,4-dienoic acid. This standard compound is described in U.S. Pat. No. 6,114,533.
(§4) The specification of this application for patent is organized in several sections in accordance with structural Formulas A through F each of which discloses a group of preferred compounds within the scope of the invention. Tables that disclose the activity of certain exemplary compounds of the invention in the above-described RXR receptor transactivation and binding assays are found in the corresponding sections. […] The transactivation data pertaining to the activation of RXR receptors were obtained in the holoreceptor assay.
as §2

Assay [4] addresses T2, RXRβ. As to the kind of experiment: holoreceptor transactivation assay, RXRβ. Conditions: for EC50: holoreceptor transactivation, read-out: RXR Trans. EC50 β; for RXR Trans. efficacy (number in parentheses) β: percentage compared to the standard compound. The assay is classed as cell-based.
Text: as §1, §3, §4, §2

SMILES strings stand for the structures. Some results are limits rather than exact numbers.

One may read the Ki as a measure of affinity in units of concentration, obtained from inhibition or displacement. One may read the EC50 as the concentration needed to bring the measured effect to its halfway point. Turning to `CCCOc1cc2c(cc1\C(C)=C(F)/C=C/C(C)=C/C(=O)O)C(C(C)(C)C)=CCC2(C)C` [Compound A-84, (2E,4E,6E)-6-Fluoro-3-(4,$dimethyl-6-n-propoxy-1-tert-butyl-3,4-dihydronaphthalen-7-yl)-3-methyl-2,4,6-octatrienoic acid], the Ki on RARγ was found to be 0.274 µM; on RXRβ [1], 0.101 µM; at RARβ [2] it was 0.62 µM. Further, at RARβ [3], the EC50 stood at 0.056 µM. The Emax on RARβ [3] amounted to 8%.

On to `CCC1=CC(C)(C)Oc2cc(OC)c(\C(C)=C/C=C/C(C)=C/C(=O)O)cc21` [Compound 42, 7-(4-Ethyl-7-methoxy-2,2-dimethyl-2H-chromen-6-yl)-3-methyl-octa-2E,4E,6Z-trienoic acid], for which the results for the Ki at RARγ, on RXRβ [1] and at RARβ [2] were greater than 10 µM, 0.228 µM and 9.9 µM, respectively. In addition, the EC50 is 0.845 µM at RARβ [3] and 0.055 µM at RXRβ [4]. The Emax at RARβ [3] is 34%. Besides, the “RXR Trans. efficacy (number in parentheses) β” value (“RXR Trans. efficacy” for short) at RXRβ [4] is 98%.

Turning to `COc1cc2c(cc1\C(C)=C/C=C/C(C)=C/C(=O)O)C(C(C)C)=CC(C)(C)O2` [Compound 43, 7-(4-Isopropyl-7-methoxy-2,2-dimethyl-2H-chromen-6-yl)-3-methyl-octa-2E,4E,6Z-trienoic acid], the Ki on RARγ worked out at 2.5 µM; on RXRβ [1], 0.078 µM; on RARβ [2], 0.378 µM. In addition, the EC50 at RARβ [3] was 0.057 µM; at RXRβ [4], 0.016 µM. Besides, the Emax on RARβ [3] stood at 37%. For the same compound, the “RXR Trans. efficacy” value on RXRβ [4] was found to be 96%.

For the compound `CC/C(=C(F)/C=C/C(C)=C/C(=O)O)c1cc2c(cc1OC)OC(C)(C)C=C2C(C)C` [Compound 130, 6-Fluoro-7-(4-isopropyl-7-methoxy-2,2-dimethyl-2H-chromen-6-yl)-3-methyl-nona-2E,4E,6E-trienoic acid], the Ki came out at 2.7 µM on RARγ, 0.024 µM on RXRβ [1] and 0.547 µM at RARβ [2]. The EC50 came out at 0.065 µM at RARβ [3] and 0.0031 µM at RXRβ [4]. At RARβ [3], the Emax worked out at 31%. In addition, the “RXR Trans. efficacy” value on RXRβ [4] was determined as 73%.

Regarding `CCOc1cc2c(cc1\C(C)=C(F)/C=C/C(C)=C/C(=O)O)C(c1ccccc1)=CC(C)(C)O2` [Compound 127, (2E,4E,6E)-7-(7-Ethoxy-2,2-dimethyl-4-phenyl-2H-chromen-6-yl)-6-fluoro-3-methyl-octa-2,4,6-trienoic acid], the Ki was determined as 2.6 µM at RARγ, 0.554 µM on RXRβ [1] and 1.4 µM on RARβ [2]. The EC50 on RARβ [3] was determined as 0.227 µM. Moreover, the Emax at RARβ [3] was 17%.

For the compound `CC(/C=C/C(F)=C(/C)c1cc2c(cc1OCC1CC1)C(C)(C)CC=C2C(C)C)=C\C(=O)O` [Compound A-81, (2E,4E,6E)-6-Fluoro-3-(4-dimethyl-6-(cyclopropyl)methoxy-1-isopropyl-3,4-dihydronaphthalen-7-yl)-3-methyl-2,4.6-octa-trienoic acid], the figures for the Ki on RARγ, on RXRβ [1] and on RARβ [2] were 5.6 µM, 0.033 µM and 0.927 µM, respectively. The EC50 at RARβ [3] came to 0.203 µM. Further, at RARβ [3], the Emax was 23%.

Take `CCCOc1cc2c(cc1\C(C)=C(F)/C=C/C(C)=C/C(=O)O)C(c1ccccc1)=CC(C)(C)O2` [Compound 128, (2E,4E,6E)-7-(2,2-Dimethyl-4-phenyl-7-propoxy-2H-chromen-6-yl)-6-fluoro-3-methyl-octa-2,4,6-trienoic acid]: the figures for the Ki on RARγ, on RXRβ [1] and on RARβ [2] were 0.759 µM, 0.289 µM and 0.388 µM, respectively. For the same compound, the EC50 at RARβ [3] is 0.09 µM. Also, the Emax at RARβ [3] turned out to be 22%.

On to `CCC1=CC(C)(C)Oc2cc(OC)c(\C(C)=C(F)/C=C/C(C)=C/C(=O)O)cc21` [Compound 120, 7-(4Ethyl-7-methoxy-2,2-dimethyl-2H-chromen-6-yl)-6-fluoro-3-methyl-octa-2E,4E,6E-trienoic acid], for which the Ki at RARγ was greater than 10 µM; at RXRβ [1], 2.6 µM; on RARβ [2] it was 8.1 µM. In addition, on RXRβ [4], the EC50 is greater than 10 µM.

For `CCCOc1cc2c(cc1\C(C)=C(F)/C=C/C(C)=C/C(=O)O)C(C(C)C)=CCC2(C)C` [Compound A-80], the Ki at RARγ stood at 6.4 µM; on RXRβ [1] it was 0.056 µM; on RARβ [2], 0.552 µM. At RARβ [3], the EC50 came out at 0.08 µM. For the same compound, the Emax at RARβ [3] was determined as 13%.

What is called Kd is the constant that tells how readily two partners part at equilibrium. In the case of `CC(/C=C/C(F)=C(/C)c1cc2c(c(Br)c1OC(C)C)C(C)(C)CC=C2C(C)C)=C\C(=O)O` [Compound A-172, (2E,4E,6E)-7-(4-Bromo-3-isopropoxy-8-isopropyl-5,5-dimethyl-5,6-dihydro-naphthalen-2-yl)-6-fluoro-3-methyl-octa-2,4,6-trienoic acid], the Kd on RARγ (Table 9 (Formula F), read-out: RAR γ Kd) was determined as 0.834 µM; on RXRβ [1] (Table 9 (Formula F), read-out: RXR β Kd) it was 0.041 µM; at RARβ [2] (Table 9 (Formula F), read-out: RAR β Kd) it was 0.212 µM. The EC50 on RXRβ [4] worked out at 0.083 µM. On RXRβ [4], the “RXR Trans. efficacy” value is listed as 39%.

As to `CCOc1c(\C(C)=C(F)/C=C/C(C)=C/C(=O)O)cc2c(c1Cl)OC(C)(C)C=C2C(C)C` [Compound 172, 7-(8-Chloro-4-isopropyl-7-ethoxy-2,2-dimethyl-2H-chromen-6-yl)-6-fluoro-3-methyl-octa-2E,4E,6E-trienoic acid], the results for the Ki at RARγ, on RXRβ [1] and on RARβ [2] were 1.4 µM, 0.085 µM and 0.442 µM, respectively. Moreover, the EC50 at RXRβ [4] came out at 0.052 µM. For the same compound, the “RXR Trans. efficacy” value on RXRβ [4] was found to be 45%.
